Measured values as given in ChEMBL document CHEMBL1799925, “Inhibition of sphingosine 1-phosphate lyase for the treatment of rheumatoid arthritis: discovery of (E)-1-(4-((1R,2S,3R)-1,2,3,4-tetrahydroxybutyl)-1H-imidazol-2-yl)ethanone oxime (LX2931) and (1R,2S,3R)-1-(2-(isoxazol-3-yl)-1H-imidazol-4-yl)butane-1,2,3,4-tetraol (LX2932)” (J Med Chem, 2010).
Each block holds one compound with its values, some of them ahead of it. Active and inactive are the calls of the source. No cut-off for these calls is given here.

Experiments:
[1] = test system: Mus musculus; assay: Bioavailability in 129/SvEvBrd X C57BL/6 F1 mouse determined from 1 mg/kg, iv and 10 mg/kg, po by LC/MS/MS analysis; type: ADME, organism-based; conditions: mouse, in vivo
[2] = test system: Mus musculus; assay: Antiarthritic activity in […] collagen-induced arthritis in mouse assessed as decrease in clinical scores at 5 mg/kg, po administered qd on day 20 after collagen challenge by ELISA; type: functional, organism-based; design: dose 5 mg/kg
[3] = Cmax in 129/SvEvBrd X C57BL/6 F1 mouse at 10 mg/kg, po by LC/MS/MS analysis; type: ADME, organism-based; design: dose 10 mg/kg, route oral; conditions: in vivo
[4] = Half life in 129/SvEvBrd X C57BL/6 F1 mouse at 10 mg/kg, po by LC/MS/MS analysis; type: ADME, organism-based; design: dose 10 mg/kg, route oral; conditions: in vivo
[5] = test system: Mus musculus; assay: Immunomodulatory activity in 129/SvEvBrd X C57BL/6 F1 mouse assessed as decrease in peripheral blood lymphocyte count at 30 mg/kg, po measured after 18 hrs by complete blood count analysis relative to control; type: ADME, organism-based; design: dose 30 mg/kg, route oral; scale not given: the % may be the effect or the level left; conditions: in vivo
[6] = test system: Mus musculus; assay: Antiarthritic activity in […] collagen-induced arthritis in mouse assessed as decrease in joint swelling at 30 mg/kg, po administered qd on day 20 after collagen challenge by ELISA; type: functional, organism-based; design: dose 30 mg/kg
[7] = Tmax in 129/SvEvBrd X C57BL/6 F1 mouse at 10 mg/kg, po by LC/MS/MS analysis; type: ADME, organism-based; design: dose 10 mg/kg, route oral; conditions: in vivo
[8] = test system: Mus musculus; assay: Effect on serum anti-CII antibody levels in type 2 collagen-induced arthritis in mouse at 30 mg/kg, po administered qd on day 20 after collagen challenge by ELISA; type: functional, organism-based; design: dose 30 mg/kg
[9] = Volume of distribution at steady state in 129/SvEvBrd X C57BL/6 F1 mouse at 1 mg/kg, iv by LC/MS/MS analysis; type: ADME, organism-based; design: dose 1 mg/kg, route intravenous; conditions: in vivo, read-out: Vdss
[10] = test system: Mus musculus; assay: Antiarthritic activity in […] collagen-induced arthritis in mouse assessed as decrease in joint swelling at 5 mg/kg, po administered qd on day 20 after collagen challenge by ELISA; type: functional, organism-based; design: dose 5 mg/kg
[11] = test system: Mus musculus; assay: Antiarthritic activity in […] collagen-induced arthritis in mouse assessed as decrease in clinical scores at 30 mg/kg, po administered qd on day 20 after collagen challenge by ELISA; type: functional, organism-based; design: dose 30 mg/kg
[12] = test system: Mus musculus; assay: (§1) AUC (0 to infinity) in 129/SvEvBrd X C57BL/6 F1 mouse at 10 mg/kg, po by LC/MS/MS analysis; type: ADME, organism-based, Plasma; design: time infinity, dose 10 mg/kg, route oral; conditions: mouse, in vivo
[13] = as §1; type: ADME, organism-based, Plasma; design: time infinity, dose 10 mg/kg, route oral; conditions: 129/SvEvBrd X C57BL/6 F1, mouse, plasma
[14] = test system: Mus musculus; assay: Immunomodulatory activity in mouse assessed as induction of lymphopenia at 5 to 10 mg/kg, po administered as single dose measured after 18 hrs; type: functional, organism-based
[15] = test system: Rattus norvegicus; assay: Immunomodulatory activity in Sprague-Dawley rat liver assessed as reduction in peripheral blood lymphocyte level at 30 mg/kg, po administered daily for 3 days measured after 18 hrs by CBC analysis; type: functional, organism-based; design: dose 30 mg/kg
[16] = test system: Rattus norvegicus; assay: Increase in S1P level in Sprague-Dawley rat eye at 30 mg/kg, po administered daily for 3 days measured after 18 hrs […]; type: functional, organism-based; design: dose 30 mg/kg
[17] = test system: Rattus norvegicus; assay: Immunomodulatory activity in Sprague-Dawley rat thymus assessed as reduction in peripheral blood lymphocyte level at 30 mg/kg, po administered daily for 3 days measured after 18 hrs by CBC analysis; type: functional, organism-based; design: dose 30 mg/kg
[18] = test system: Rattus norvegicus; assay: Immunomodulatory activity in Sprague-Dawley rat jejunum assessed as reduction in peripheral blood lymphocyte level at 30 mg/kg, po administered daily for 3 days measured after 18 hrs by CBC analysis; type: functional, organism-based; design: dose 30 mg/kg
[19] = test system: Rattus norvegicus; assay: Immunomodulatory activity in Sprague-Dawley rat lung assessed as reduction in peripheral blood lymphocyte level at 30 mg/kg, po administered daily for 3 days measured after 18 hrs by CBC analysis; type: functional, organism-based; design: dose 30 mg/kg
[20] = test system: Mus musculus; assay: Antiarthritic activity in […] collagen-induced arthritic mouse assessed as decrease in joint swelling at 100 mg/kg, po administered qd one started one day before collagen challenge; type: functional, organism-based; design: dose 100 mg/kg
[21] = test system: Mus musculus; assay: Antiarthritic activity in […] collagen-induced arthritic mouse assessed as increase in CD8-positive cells in thymus at 100 mg/kg, po qd administered one day before collagen challenge; type: functional, organism-based; design: dose 100 mg/kg
[22] = test system: Mus musculus; assay: Antiarthritic activity in […] collagen-induced arthritic mouse assessed as decrease in arthritic score at 100 mg/kg, po administered qd one started one day before collagen challenge; type: functional, organism-based; design: dose 100 mg/kg
[23] = test system: Mus musculus; assay: Antiarthritic activity in […] collagen-induced arthritic mouse assessed as increase in CD4-positive cells in thymus at 100 mg/kg, po qd administered one day before collagen challenge; type: functional, organism-based; design: dose 100 mg/kg
[24] = test system: Rattus norvegicus; assay: Immunomodulatory activity in Sprague-Dawley rat kidney assessed as reduction in peripheral blood lymphocyte level at 30 mg/kg, po administered daily for 3 days measured after 18 hrs by CBC analysis; type: functional, organism-based; design: dose 30 mg/kg
[25] = test system: Rattus norvegicus; assay: Immunomodulatory activity in Sprague-Dawley rat eye assessed as reduction in peripheral blood lymphocyte level at 30 mg/kg, po administered daily for 3 days measured after 18 hrs by CBC analysis; type: functional, organism-based; design: dose 30 mg/kg
[26] = test system: Rattus norvegicus; assay: Immunomodulatory activity in Sprague-Dawley rat spleen assessed as reduction in peripheral blood lymphocyte level at 30 mg/kg, po administered daily for 3 days measured after 18 hrs by CBC analysis; type: functional, organism-based; design: dose 30 mg/kg
[27] = test system: Mus musculus; assay: Antiarthritic activity in […] collagen-induced arthritic mouse assessed as decrease in erosion at 100 mg/kg, po administered qd one started one day before collagen challenge; type: functional, organism-based; design: dose 100 mg/kg
[28] = test system: Rattus norvegicus; assay: Immunomodulatory activity in Sprague-Dawley rat lymph node assessed as reduction in peripheral blood lymphocyte level at 30 mg/kg, po administered daily for 3 days measured after 18 hrs by CBC analysis; type: functional, organism-based; design: dose 30 mg/kg
[29] = test system: Rattus norvegicus; assay: Increase in S1P level Sprague-Dawley rat heart at 30 mg/kg, po administered daily for 3 days measured after 18 hrs […]; type: functional, organism-based; design: dose 30 mg/kg
[30] = test system: Mus musculus; assay: Antiarthritic activity in […] collagen-induced arthritic mouse assessed as decrease in synovial hyperplasia at 100 mg/kg, po administered qd one started one day before collagen challenge; type: functional, organism-based; design: dose 100 mg/kg
[31] = test system: Rattus norvegicus; assay: Immunomodulatory activity in Sprague-Dawley rat heart assessed as reduction in peripheral blood lymphocyte level at 30 mg/kg, po administered daily for 3 days measured after 18 hrs by CBC analysis; type: functional, organism-based; design: dose 30 mg/kg
[32] = test system: Mus musculus; assay: Antiarthritic activity in […] collagen-induced arthritic mouse assessed as decrease in exudate formation at 100 mg/kg, po administered qd one started one day before collagen challenge; type: functional, organism-based; design: dose 100 mg/kg
[33] = test system: Mus musculus; assay: Antiarthritic activity in […] collagen-induced arthritic mouse assessed as decrease in inflammation at 100 mg/kg, po administered qd one started one day before collagen challenge; type: functional, organism-based; design: dose 100 mg/kg
[34] = test system: Mus musculus; assay: Antiarthritic activity in […] collagen-induced arthritic mouse assessed as delay in onset of collagen-induced arthritis at 100 mg/kg, po administered qd one started one day before collagen challenge; type: functional, organism-based; design: dose 100 mg/kg

F [1]: 2.4%
Cmax [3]: 6.2 µM
half-life [4]: 2.9 h
Activity [5]: -70%
Tmax [7]: 2.1 h
Vd [9]: 0.54 L/kg
AUC [12]: 21 µM·h
SMILES: Cl.OC[C@@H](O)[C@@H](O)[C@H](O)c1c[nH]c(-c2ccon2)n1
Activity [2]: Active
Activity [6]: Active
Activity [8]: inactive
Activity [10]: Active
Activity [11]: Active

Activity [5]: -10%
AUC(0-inf) [13]: 5.9 µM·h
SMILES: CN(C)Cc1cc(-c2nc([C@@H](O)[C@H](O)[C@H](O)CO)c[nH]2)no1.Cl

Activity [5]: -19%
AUC(0-inf) [13]: 9.6 µM·h
SMILES: Cl.OC[C@@H](O)[C@@H](O)[C@H](O)c1c[nH]c(-c2cc(C3CC3)on2)n1

Activity [5]: -39%
AUC(0-inf) [13]: 12.5 µM·h
SMILES: Cc1cc(-c2nc([C@@H](O)[C@H](O)[C@H](O)CO)c[nH]2)no1.Cl

Activity [5]: -6%
AUC(0-inf) [13]: 11.7 µM·h
SMILES: CC(=O)c1c(-c2nc([C@@H](O)[C@H](O)[C@H](O)CO)c[nH]2)noc1C.Cl

Activity [5]: -25%
AUC(0-inf) [13]: 15 µM·h
SMILES: CC(=O)c1nc([C@@H](O)[C@H](O)[C@H](O)CO)c[nH]1.Cl

Second part, the compound before the results:

SMILES: Cl.OC[C@@H](O)[C@@H](O)[C@H](O)c1c[nH]c(-c2cc(-c3ccccc3)on2)n1
Activity [5]: -2%
AUC(0-inf) [13]: 10.3 µM·h

SMILES: Cc1cc(-c2nc([C@@H](O)[C@H](O)[C@H](O)CO)c[nH]2)on1.Cl
Activity [5]: -4%
AUC(0-inf) [13]: 5.3 µM·h

SMILES: C/C(=N\O)c1ncc([C@@H](O)[C@H](O)[C@H](O)CO)[nH]1
Activity [14]: inactive
Activity [15]: Active
Activity [16]: inactive
Activity [17]: Active
Activity [18]: Active
Activity [2]: Active
Activity [19]: Active
Activity [20]: Active
Activity [21]: Active
Activity [22]: Active
Activity [23]: Active
Activity [6]: Active
Activity [24]: Active
Activity [25]: Active
Activity [26]: Active
Activity [27]: Active
Activity [28]: Active
Activity [29]: inactive
Activity [8]: inactive
Activity [30]: Active
Activity [31]: Active
Activity [10]: Active
Activity [32]: Active
Activity [33]: Active
Activity [11]: Active
Activity [34]: Active

SMILES: Cl.OC[C@@H](O)[C@@H](O)[C@H](O)c1c[nH]c(C2=NOCC2)n1
Activity [5]: -12%
AUC(0-inf) [13]: 8.3 µM·h

SMILES: CCc1conc1-c1nc([C@@H](O)[C@H](O)[C@H](O)CO)c[nH]1.Cl
Activity [5]: -55%
AUC(0-inf) [13]: 26.9 µM·h

SMILES: Cl.OC[C@@H](O)[C@@H](O)[C@H](O)c1c[nH]c(-c2cc(C(F)(F)F)on2)n1
Activity [5]: 2%
AUC(0-inf) [13]: 7.8 µM·h

SMILES: Cl.OCc1cc(-c2nc([C@@H](O)[C@H](O)[C@H](O)CO)c[nH]2)no1
Activity [5]: -7%
AUC(0-inf) [13]: 6.1 µM·h

SMILES: CCOc1cc(-c2nc([C@@H](O)[C@H](O)[C@H](O)CO)c[nH]2)no1.Cl
Activity [5]: -26%
AUC(0-inf) [13]: 9.1 µM·h

SMILES: Cc1onc(-c2nc([C@@H](O)[C@H](O)[C@H](O)CO)c[nH]2)c1[N+](=O)[O-].Cl
Activity [5]: -27%
AUC(0-inf) [13]: 8.2 µM·h

SMILES: CC(C)c1cc(-c2nc([C@@H](O)[C@H](O)[C@H](O)CO)c[nH]2)no1.Cl
Activity [5]: -30%
AUC(0-inf) [13]: 12.8 µM·h
